Source: paper PMC5218480 (PLoS ONE, 2017)

Test system: MV-4-11 cells
Assay: Gene expression microarray analysis (Affymetrix PrimeView) and GSEA
Format: cell-based, human
Set-up: RFU PODN (11730768_x_at) / Fold change /veh PODN (11730768_x_at) / RFU LINC00158 (11744669_a_at) / Fold change /veh LINC00158 (11744669_a_at) / RFU DUSP10 (11751237_a_at) / Fold change /veh DUSP10 (11751237_a_at) / RFU ID3 (11757404_x_at) / Fold change /veh ID3 (11757404_x_at) / RFU PLEKHG5 (11737974_s_at) / Fold change /veh PLEKHG5 (11737974_s_at) / RFU LRRC4B (11730491_at) / Fold change /veh LRRC4B (11730491_at) / RFU GIMAP4 (11747438_a_at) / Fold change /veh GIMAP4 (11747438_a_at) / RFU KRT8 (11758183_x_at) / Fold change /veh KRT8 (11758183_x_at) / RFU CNN1 (11734310_a_at) / Fold change /veh CNN1 (11734310_a_at) / RFU VPS37D (11726825_at) / Fold change /veh VPS37D (11726825_at) / RFU C10orf10 (11716522_x_at) / Fold change /veh C10orf10 (11716522_x_at) / RFU KIR2DL2 /// KIR2DL4 /// KIR2DL5A /// KIR2DL5B /// KIR2DS1 /// KIR2DS2 /// KIR2DS3 /// KIR2DS4 /// KIR3DL3 /// KIR3DL3 /// KIR3DS1 (11738374_at) / Fold change /veh KIR2DL2 /// KIR2DL4 /// KIR2DL5A /// KIR2DL5B /// KIR2DS1 /// KIR2DS2 /// KIR2DS3 /// KIR2DS4 /// KIR3DL3 /// KIR3DL3 /// KIR3DS1 (11738374_at) / RFU C1QL1 (11718748_at) / Fold change /veh C1QL1 (11718748_at) / RFU TMPRSS4 (11747572_a_at) / Fold change /veh TMPRSS4 (11747572_a_at) / RFU HAMP (11756126_x_at) / Fold change /veh HAMP (11756126_x_at) / RFU RNFT2 (11725882_a_at) / Fold change /veh RNFT2 (11725882_a_at) / RFU NR4A2 (11747474_a_at) / Fold change /veh NR4A2 (11747474_a_at) / RFU ABCC12 (11746883_a_at) / Fold change /veh ABCC12 (11746883_a_at) / RFU TMEM136 (11760407_x_at) / Fold change /veh TMEM136 (11760407_x_at) / RFU CLDN22 /// WWC2 (11732394_at) / Fold change /veh CLDN22 /// WWC2 (11732394_at) / RFU HLA-DPB1 (11760878_x_at) / Fold change /veh HLA-DPB1 (11760878_x_at) / RFU SPINT1 (11716480_a_at) / Fold change /veh SPINT1 (11716480_a_at) / RFU GAP43 (11754022_s_at) / Fold change /veh GAP43 (11754022_s_at) / RFU A4GNT (11735810_at) / Fold change /veh A4GNT (11735810_at) / RFU PRB3 (11715151_x_at) / Fold change /veh PRB3 (11715151_x_at) / RFU TUBB4B (11761932_at) / Fold change /veh TUBB4B (11761932_at) / RFU CAPN14 (11732068_a_at) / Fold change /veh CAPN14 (11732068_a_at) / RFU TMCC2 (11721928_a_at) / Fold change /veh TMCC2 (11721928_a_at) / RFU IRGQ (11745062_a_at) / Fold change /veh IRGQ (11745062_a_at) / RFU FAM174B (11720279_a_at) / Fold change /veh FAM174B (11720279_a_at) / RFU TMPRSS4 (11748680_a_at) / Fold change /veh TMPRSS4 (11748680_a_at) / RFU FAM212B (11763350_a_at) / Fold change /veh FAM212B (11763350_a_at) / RFU PLEKHG5 (11743358_a_at) / Fold change /veh PLEKHG5 (11743358_a_at) / RFU ZSCAN30 (11745921_a_at) / Fold change /veh ZSCAN30 (11745921_a_at) / RFU CMKLR1 (11741424_a_at) / Fold change /veh CMKLR1 (11741424_a_at) / RFU LOC101060620 /// MAPK8IP1 (11723275_at) / Fold change /veh LOC101060620 /// MAPK8IP1 (11723275_at) / RFU SPTSSB (11747773_x_at) / Fold change /veh SPTSSB (11747773_x_at) / RFU PRSS12 (11739890_at) / Fold change /veh PRSS12 (11739890_at) / RFU BIN1 (11741810_x_at) / Fold change /veh BIN1 (11741810_x_at) / RFU WNT11 (11732464_a_at) / Fold change /veh WNT11 (11732464_a_at) / RFU C10orf10 (11716521_a_at) / Fold change /veh C10orf10 (11716521_a_at) / RFU C5orf56 (11738089_at) / Fold change /veh C5orf56 (11738089_at) / RFU CYB561 (11721691_x_at) / Fold change /veh CYB561 (11721691_x_at) / RFU ANKRD19P (11752326_a_at) / Fold change /veh ANKRD19P (11752326_a_at) / RFU OR2T12 /// OR2T33 /// OR2T8 (11738714_s_at) / Fold change /veh OR2T12 /// OR2T33 /// OR2T8 (11738714_s_at) / RFU VCAN (11748164_a_at) / Fold change /veh VCAN (11748164_a_at) / RFU JSRP1 (11732532_at) / Fold change /veh JSRP1 (11732532_at) / RFU KRTAP10-11 (11738290_x_at) / Fold change /veh KRTAP10-11 (11738290_x_at) / RFU MYO3A (11730013_a_at) / Fold change /veh MYO3A (11730013_a_at) / RFU EBF3 (11725865_a_at) / Fold change /veh EBF3 (11725865_a_at) / RFU CAMK2N1 (11719241_x_at) / Fold change /veh CAMK2N1 (11719241_x_at) / RFU C5orf56 (11738088_a_at) / Fold change /veh C5orf56 (11738088_a_at) / RFU OLFML3 (11715873_a_at) / Fold change /veh OLFML3 (11715873_a_at) / RFU LOC100653217 /// NTM (11731650_a_at) / Fold change /veh LOC100653217 /// NTM (11731650_a_at) / RFU MAPK11 (11762145_a_at) / Fold change /veh MAPK11 (11762145_a_at) / RFU FIZ1 (11724087_x_at) / Fold change /veh FIZ1 (11724087_x_at) / RFU OASL (11726364_x_at) / Fold change /veh OASL (11726364_x_at) / RFU SOX15 (11748057_x_at) / Fold change /veh SOX15 (11748057_x_at) / RFU CD79A (11719716_a_at) / Fold change /veh CD79A (11719716_a_at) / RFU HIST1H1D (11736915_at) / Fold change /veh HIST1H1D (11736915_at) / RFU CASKIN2 (11723855_a_at) / Fold change /veh CASKIN2 (11723855_a_at) / RFU LOC730098 (11760151_x_at) / Fold change /veh LOC730098 (11760151_x_at) / RFU OR4N2 (11742367_at) / Fold change /veh OR4N2 (11742367_at) / RFU PRRT2 (11749266_a_at) / Fold change /veh PRRT2 (11749266_a_at) / RFU SNX32 (11753110_a_at) / Fold change /veh SNX32 (11753110_a_at) / RFU CDHR5 (11726645_a_at) / Fold change /veh CDHR5 (11726645_a_at) / RFU RCAN1 (11760418_a_at) / Fold change /veh RCAN1 (11760418_a_at) / RFU FAM167A (11723789_a_at) / Fold change /veh FAM167A (11723789_a_at) / RFU FAM26E (11764081_at) / Fold change /veh FAM26E (11764081_at) / RFU ISYNA1 (11749810_s_at) / Fold change /veh ISYNA1 (11749810_s_at) / RFU ACY1 (11761880_at) / Fold change /veh ACY1 (11761880_at) / RFU 11764098_at / Fold change /veh 11764098_at / RFU SAMD14 (11745864_x_at) / Fold change /veh SAMD14 (11745864_x_at) / RFU NPB (11741838_a_at) / Fold change /veh NPB (11741838_a_at) / RFU TMPRSS6 (11731388_a_at) / Fold change /veh TMPRSS6 (11731388_a_at) / RFU KRTAP10-2 (11738614_at) / Fold change /veh KRTAP10-2 (11738614_at) / RFU ARHGAP8 /// PRR5-ARHGAP8 (11727945_x_at) / Fold change /veh ARHGAP8 /// PRR5-ARHGAP8 (11727945_x_at) / RFU KRTAP5-7 /// NADSYN1 (11734609_at) / Fold change /veh KRTAP5-7 /// NADSYN1 (11734609_at) / RFU RASL12 (11751679_a_at) / Fold change /veh RASL12 (11751679_a_at) / RFU CDKN2B (11736163_a_at) / Fold change /veh CDKN2B (11736163_a_at) / RFU PRF1 (11729649_at) / Fold change /veh PRF1 (11729649_at) / RFU, ZNF638 /// ZNF638-IT1 / Fold change vs veh, ZNF638 /// ZNF638-IT1 / RFU, PANK3 / Fold change vs veh, PANK3 / RFU, SH3YL1 / Fold change vs veh, SH3YL1 / RFU, ZEB2 / Fold change vs veh, ZEB2 / RFU, NRIP1 / Fold change vs veh, NRIP1 / RFU, PTTG1IP / Fold change vs veh, PTTG1IP / RFU, CAPN2 / Fold change vs veh, CAPN2 / RFU, MED14 / Fold change vs veh, MED14 / RFU, SNORA58 / Fold change vs veh, SNORA58 / RFU, C1orf63 / Fold change vs veh, C1orf63 / RFU, LRRFIP1 / Fold change vs veh, LRRFIP1 / RFU, NDUFAF7 / Fold change vs veh, NDUFAF7 / RFU, SLC12A2 / Fold change vs veh, SLC12A2 / RFU, IBTK / Fold change vs veh, IBTK / RFU, ESF1 / Fold change vs veh, ESF1 / Fold change vs veh, TMEM50B / RFU, TAOK1 / Fold change vs veh, TAOK1 / RFU, ACBD3 / Fold change vs veh, ACBD3 / RFU, TMA16 / Fold change vs veh, TMA16 / RFU, RWDD3 / Fold change vs veh, RWDD3 / RFU, BCAT1 / Fold change vs veh, BCAT1 / RFU, EDEM3 / Fold change vs veh, EDEM3 / RFU, TMEM33 / Fold change vs veh, TMEM33 / RFU, WDR75 / Fold change vs veh, WDR75 / RFU, AHCTF1 / Fold change vs veh, AHCTF1 / RFU, TFRC / Fold change vs veh, TFRC / RFU, ZDHHC17 / Fold change vs veh, ZDHHC17 / RFU, NOM1 / Fold change vs veh, NOM1 / RFU, ARL8B / Fold change vs veh, ARL8B / RFU, ZBTB11 / Fold change vs veh, ZBTB11 / RFU, TAMM41 / Fold change vs veh, TAMM41 / RFU, KIAA1704 /// LOC100996395 / Fold change vs veh, KIAA1704 /// LOC100996395 / RFU, ING1 / Fold change vs veh, ING1 / RFU, TRMT61B / Fold change vs veh, TRMT61B / RFU, FUBP3 / Fold change vs veh, FUBP3 / RFU, TP53 / Fold change vs veh, TP53 / RFU, TNKS2 / Fold change vs veh, TNKS2 / RFU, ZFP14 / Fold change vs veh, ZFP14 / RFU, ACTR2 / Fold change vs veh, ACTR2 / RFU, PPP3R1 / Fold change vs veh, PPP3R1 / RFU, PIK3R1 / Fold change vs veh, PIK3R1 / RFU, HNRNPA1 / Fold change vs veh, HNRNPA1 / RFU, RNF170 / Fold change vs veh, RNF170 / RFU, ZNF28 / Fold change vs veh, ZNF28 / RFU, RNGTT / Fold change vs veh, RNGTT / RFU, OGT / Fold change vs veh, OGT / RFU, BRD1 / Fold change vs veh, BRD1 / RFU, MARS / Fold change vs veh, MARS / RFU, ZNF655 / Fold change vs veh, ZNF655 / RFU, FAHD1 / Fold change vs veh, FAHD1 / RFU, BDP1 / Fold change vs veh, BDP1 / RFU, LRRCC1 / Fold change vs veh, LRRCC1 / RFU, ARID1A / Fold change vs veh, ARID1A / RFU, ZNF146 / Fold change vs veh, ZNF146 / RFU, ZNF330 / Fold change vs veh, ZNF330 / RFU, GPN3 / Fold change vs veh, GPN3 / RFU, C9orf123 / Fold change vs veh, C9orf123 / RFU, N4BP2L2 / Fold change vs veh, N4BP2L2 / RFU, ARFIP1 / Fold change vs veh, ARFIP1 / RFU, FAM179B / Fold change vs veh, FAM179B / RFU, BCL10 / Fold change vs veh, BCL10 / RFU, UHRF1BP1L / Fold change vs veh, UHRF1BP1L / RFU, BET1 / Fold change vs veh, BET1 / RFU, CNOT2 / Fold change vs veh, CNOT2 / RFU, ZNF268 / Fold change vs veh, ZNF268 / Fold change vs veh, ZNF507 / RFU, DGCR2 / Fold change vs veh, DGCR2 / RFU, WDSUB1 / Fold change vs veh, WDSUB1 / Fold change vs veh, HSP90B1 /// MIR3652 / RFU, ADSS / Fold change vs veh, ADSS / RFU, GK / Fold change vs veh, GK / RFU, ZNF148 / Fold change vs veh, ZNF148 / RFU, TAF9 / Fold change vs veh, TAF9 / RFU, SLC1A5 / Fold change vs veh, SLC1A5 / RFU, SLMO2 / Fold change vs veh, SLMO2 / RFU, ABCC4 / Fold change vs veh, ABCC4 / RFU, LOC101060439 /// RAP1B / Fold change vs veh, LOC101060439 /// RAP1B / RFU, RFX7 / Fold change vs veh, RFX7 / RFU, GTPBP10 / Fold change vs veh, GTPBP10 / RFU, CNEP1R1 / Fold change vs veh, CNEP1R1 / RFU, BIVM-ERCC5 /// ERCC5 / Fold change vs veh, BIVM-ERCC5 /// ERCC5 / RFU, ILF3 / Fold change vs veh, ILF3 / RFU 11762660_at / Fold change /veh 11762660_at / RFU VCAN (11757783_s_at) / Fold change /veh VCAN (11757783_s_at) / RFU DDX43 (11728927_at) / Fold change /veh DDX43 (11728927_at) / RFU KRT8 (11758188_x_at) / Fold change /veh KRT8 (11758188_x_at) / RFU NKD1 (11759106_at) / Fold change /veh NKD1 (11759106_at) / RFU SRD5A1 (11742802_a_at) / Fold change /veh SRD5A1 (11742802_a_at) / RFU TPSAB1 /// TPSB2 (11721975_s_at) / Fold change /veh TPSAB1 /// TPSB2 (11721975_s_at) / RFU GSTM3 (11746129_a_at) / Fold change /veh GSTM3 (11746129_a_at) / RFU IL23R (11737362_x_at) / Fold change /veh IL23R (11737362_x_at) / RFU TMEM51 (11727254_a_at) / Fold change /veh TMEM51 (11727254_a_at) / RFU PIWIL2 (11732686_x_at) / Fold change /veh PIWIL2 (11732686_x_at) / RFU ORM1 (11744905_x_at) / Fold change /veh ORM1 (11744905_x_at) / RFU CCDC152 (11743942_at) / Fold change /veh CCDC152 (11743942_at) / RFU ECM1 (11717891_a_at) / Fold change /veh ECM1 (11717891_a_at) / RFU IL23R (11748794_a_at) / Fold change /veh IL23R (11748794_a_at) / RFU TNFAIP8L3 (11732012_x_at) / Fold change /veh TNFAIP8L3 (11732012_x_at) / RFU MBOAT4 (11741988_at) / Fold change /veh MBOAT4 (11741988_at) / RFU 11764193_at / Fold change /veh 11764193_at / RFU TMEM53 (11763286_at) / Fold change /veh TMEM53 (11763286_at) / RFU MAGEB2 (11727129_at) / Fold change /veh MAGEB2 (11727129_at) / RFU TMEM200A (11744735_a_at) / Fold change /veh TMEM200A (11744735_a_at) / RFU CCDC152 (11751479_a_at) / Fold change /veh CCDC152 (11751479_a_at) / RFU FAM211A (11726209_a_at) / Fold change /veh FAM211A (11726209_a_at) / RFU RGS16 (11746705_a_at) / Fold change /veh RGS16 (11746705_a_at) / RFU VCAN (11755009_s_at) / Fold change /veh VCAN (11755009_s_at) / RFU RHOB (11743442_s_at) / Fold change /veh RHOB (11743442_s_at) / RFU RGS16 (11720943_a_at) / Fold change /veh RGS16 (11720943_a_at) / RFU RGS16 (11720944_at) / Fold change /veh RGS16 (11720944_at) / RFU, VPS4B / Fold change vs veh, VPS4B / RFU, CREB1 / Fold change vs veh, CREB1 / RFU, DNAJC13 / Fold change vs veh, DNAJC13 / RFU, GNAQ / Fold change vs veh, GNAQ / RFU, CDK5R1 / Fold change vs veh, CDK5R1 / RFU, ZRANB3 / Fold change vs veh, ZRANB3 / RFU, CUL4A / Fold change vs veh, CUL4A / RFU, CCNY / Fold change vs veh, CCNY / RFU, UFL1 / Fold change vs veh, UFL1 / RFU, COG3 / Fold change vs veh, COG3 / RFU, DIAPH2 / Fold change vs veh, DIAPH2 / RFU, SKA2 / Fold change vs veh, SKA2 / RFU, AFF3 / Fold change vs veh, AFF3 / RFU, LMF1 / Fold change vs veh, LMF1 / RFU, IPO11 / Fold change vs veh, IPO11 / RFU, DFFB / Fold change vs veh, DFFB / RFU, FOXP1 / Fold change vs veh, FOXP1 / RFU, CARD8 / Fold change vs veh, CARD8 / RFU, STRN3 / Fold change vs veh, STRN3 / RFU, ADK / Fold change vs veh, ADK / RFU, RASSF2 / Fold change vs veh, RASSF2 / RFU, WIPF1 / Fold change vs veh, WIPF1 / RFU, LARP1B / Fold change vs veh, LARP1B / RFU, RASA1 / Fold change vs veh, RASA1 / RFU, RB1 / Fold change vs veh, RB1 / RFU, PPFIA1 / Fold change vs veh, PPFIA1 / RFU, MAT2A / Fold change vs veh, MAT2A / RFU, CCT5 / Fold change vs veh, CCT5 / RFU, WDR92 / Fold change vs veh, WDR92 / RFU, CUX1 / Fold change vs veh, CUX1 / RFU, TTC7A / Fold change vs veh, TTC7A / RFU, TMEM135 / Fold change vs veh, TMEM135 / RFU, DEPTOR / Fold change vs veh, DEPTOR / RFU, CPM / Fold change vs veh, CPM / RFU, DNAJB6 / Fold change vs veh, DNAJB6 / RFU, CACNA2D3 / Fold change vs veh, CACNA2D3 / RFU, DTX4 / Fold change vs veh, DTX4 / RFU, TFCP2 / Fold change vs veh, TFCP2 / RFU, GMCL1 /// GMCL1P1 / Fold change vs veh, GMCL1 /// GMCL1P1 / RFU, AEBP2 / Fold change vs veh, AEBP2 / RFU, SNHG1 /// SNORD22 /// SNORD25 /// SNORD26 /// SNORD27 /// SNORD28 /// SNORD29 /// SNORD31 / Fold change vs veh, SNHG1 /// SNORD22 /// SNORD25 /// SNORD26 /// SNORD27 /// SNORD28 /// SNORD29 /// SNORD31 / Fold change (Aza/veh), C12orf56 (ProbeSet 11735607_a_at) / Fold change (ACY-1035/veh), C12orf56 (ProbeSet 11735607_a_at) / Fold change (Aza/veh), FGFR1OP (ProbeSet 11751329_s_at) / Fold change (ACY-1035/veh), FGFR1OP (ProbeSet 11751329_s_at) / Fold change (Aza/veh), VPS36 (ProbeSet 11739960_a_at) / Fold change (ACY-1035/veh), VPS36 (ProbeSet 11739960_a_at) / RFU SYPL1 (11715823_x_at) / Fold change /veh SYPL1 (11715823_x_at) / RFU IGFBP7 (11715501_s_at) / Fold change /veh IGFBP7 (11715501_s_at) / RFU REEP3 (11722064_at) / Fold change /veh REEP3 (11722064_at) / RFU IGLL1 (11728026_x_at) / Fold change /veh IGLL1 (11728026_x_at): dose or concentration left out as unconfirmed
Conditions: ProbeSet 11729173_a_at; LIST D

Nc1ncn([C@@H]2O[C@H](CO)[C@@H](O)[C@H]2O)c(=O)n1 [azacitidine]
Fold change vs veh, SKA2: 0.81
